Activity data for eight molecules are collected here from ChEMBL document CHEMBL3046331, “Ethyl 4-[(1-substituted indol-2-yl)methoxy]benzoates and indoline derivatives: Anti-juvenile hormone and juvenile hormone activities” (2009).

Experiment [1] deals with Bombyx mori. In words: Antijuvenile hormone activity in third-instar larvae of Bombyx mori assessed as induction of precocious metamorphosis at 40 ug/larvae topically applied to the dorsal abdomen. It is filed as functional.
Experiment [2] deals with Bombyx mori. Description: Antijuvenile hormone activity in third-instar larvae of Bombyx mori assessed as induction of precocious metamorphosis at 10 ug/larvae topically applied to the dorsal abdomen. It is filed as functional.
Experiment [3] relates to Bombyx mori. Description: Antijuvenile hormone activity in third-instar larvae of Bombyx mori assessed as induction of precocious metamorphosis at 1 ug/larvae topically applied to the dorsal abdomen. It is filed as functional.
Experiment [4] has as its system Bombyx mori. Description: Juvenile hormone activity in allatectomized fourth-instar larvae of Bombyx mori assessed as number of larvae transformed into larval-pupal intermediate at 40 ug/larvae topically applied to the dorsal abdomen. It is filed as functional, organism-based.
The test system of experiment [5] is Bombyx mori. Description: Juvenile hormone activity in allatectomized fourth-instar larvae of Bombyx mori assessed as number of larvae transformed into precocious pupa at 40 ug/larvae topically applied to the dorsal abdomen. It is filed as functional, organism-based.
The test system of experiment [6] is Bombyx mori. Description: Juvenile hormone activity in allatectomized fourth-instar larvae of Bombyx mori assessed as number of larvae transformed into fifth instar larvae at 40 ug/larvae topically applied to the dorsal abdomen. It is filed as functional, organism-based.
Experiment [7] deals with Bombyx mori. Description: Juvenile hormone activity in allatectomized fourth-instar larvae of Bombyx mori assessed as number of larvae transformed into fifth instar larvae at 1 ug/larvae topically applied to the dorsal abdomen. It is filed as functional, organism-based.
The test system of experiment [8] is Bombyx mori. In words: Juvenile hormone activity in allatectomized fourth-instar larvae of Bombyx mori assessed as number of larvae transformed into larval-pupal intermediate at 1 ug/larvae topically applied to the dorsal abdomen. It is filed as functional, organism-based.
In experiment [9] the test system is Bombyx mori. Description: Juvenile hormone activity in allatectomized fourth-instar larvae of Bombyx mori assessed as number of larvae transformed into precocious pupa at 1 ug/larvae topically applied to the dorsal abdomen. It is filed as functional, organism-based.

Calls of active or inactive are those of the source. No cut-off for these calls is given here.

As to `CCCn1c(COc2ccc(C(=O)OCC)cc2)cc2ccccc21`, the Activity in the experiment on Bombyx mori [1] is 90%; in the experiment on Bombyx mori [2], 95%; with Bombyx mori [3], 67%.

For `CCOC(=O)c1ccc(OCc2cc3ccccc3n2Cc2ccccc2)cc1`, the Activity worked out at 84% in the experiment on Bombyx mori [1], 73% in the experiment on Bombyx mori [2] and 73% in the experiment with Bombyx mori [3]. Besides, the outcome with Bombyx mori [4] was inactive.

With `CCCCC(COc1ccc(C(=O)OCC)cc1)Cc1ccccc1` (stereo unspecified), the figures for the Activity with Bombyx mori [1], in the experiment on Bombyx mori [2] and in the experiment with Bombyx mori [3] were 12%, 34% and 90%, respectively.

For `CCCCn1c(COc2ccc(C(=O)OCC)cc2)cc2ccccc21`, the outcome in the experiment on Bombyx mori [5] and in the experiment with Bombyx mori [4] was inactive. The values for the Activity in the experiment on Bombyx mori [1], in the experiment with Bombyx mori [2] and in the experiment with Bombyx mori [3] were 94%, 93% and 65%, respectively. For the same molecule, the outcome with Bombyx mori [6] was Active.

As to `CCOC(=O)c1ccc(OCc2cc3ccccc3n2CC)cc1`, the Activity in the experiment with Bombyx mori [1], in the experiment on Bombyx mori [2] and in the experiment with Bombyx mori [3] was 5% throughout.

Consider `COC(C)(C)CCC[C@H](C)C/C=C/C(C)=C/C(=O)OC(C)C`, for which the outcome in the experiment with Bombyx mori [7] was Active. The result with Bombyx mori [8] and in the experiment with Bombyx mori [9] was inactive.

As for `CCCCN1c2ccccc2C[C@H]1COc1ccc(C(=O)OCC)cc1`, the outcome with Bombyx mori [5] was Active. In addition, the Activity in the experiment with Bombyx mori [1] amounted to 82%; in the experiment with Bombyx mori [2], 65%; with Bombyx mori [3], 5%. Besides, the outcome in the experiment with Bombyx mori [6] and with Bombyx mori [4] was inactive.

Take `CCOC(=O)c1ccc(OC[C@@H]2Cc3ccccc3N2Cc2ccccc2)cc1`: the values for the Activity in the experiment with Bombyx mori [1], with Bombyx mori [2] and with Bombyx mori [3] were 28%, 25% and 5%, respectively.
